Source: PubChem BioAssay (NCI)
Values joined by “and” are separate entries in the source; they are usually repeats but may differ in a detail not shown here. Equal entries are not always repeated.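 Interpolation was linear, between the two tested concentrations surrounding the appropriate level; five concentrations were tested over 48 hours in 96-well plates. Abbreviation: GI50, concentration required for 50% inhibition of growth. TGI: total growth inhibition.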

Legend:
Test in all cases: NCI tumour cell line growth inhibition, 48 h
SK-MEL-5 melanoma = tested on: SK-MEL-5 melanoma
KM20L2 colon = tested on: KM20L2 colon
DMS 273 small cell lung = tested on: DMS 273 small cell lung
SK-MEL-28 melanoma = tested on: SK-MEL-28 melanoma
NCI-H522 lung = tested on: NCI-H522 lung
ACHN renal = tested on: ACHN renal
SW-620 colon = tested on: SW-620 colon
HT29 colon = tested on: HT29 colon
786-0 renal = tested on: 786-0 renal
SF-268 CNS = tested on: SF-268 CNS
CAKI-1 renal = tested on: CAKI-1 renal
DLD-1 colon = tested on: DLD-1 colon
MOLT-4 leukemia = tested on: MOLT-4 leukemia
UO-31 renal = tested on: UO-31 renal
A549 NSCLC = tested on: A549 NSCLC
SK-OV-3 ovarian = tested on: SK-OV-3 ovarian
OVCAR-8 ovarian = tested on: OVCAR-8 ovarian
M14 melanoma = tested on: M14 melanoma
HCT-15 colon = tested on: HCT-15 colon
RXF-631 renal = tested on: RXF-631 renal
NCI-H460 lung = tested on: NCI-H460 lung
UACC-62 melanoma = tested on: UACC-62 melanoma
DMS 114 small cell lung = tested on: DMS 114 small cell lung
SF-539 CNS = tested on: SF-539 CNS
HL-60(TB) leukemia = tested on: HL-60(TB) leukemia
SNB-19 CNS = tested on: SNB-19 CNS
LOX IMVI melanoma = tested on: LOX IMVI melanoma
K-562 leukemia = tested on: K-562 leukemia
XF 498 CNS = tested on: XF 498 CNS
IGROV1 ovarian = tested on: IGROV1 ovarian
RPMI-8226 leukemia = tested on: RPMI-8226 leukemia
U251 CNS = tested on: U251 CNS
SN12C renal = tested on: SN12C renal
HCT-116 colon = tested on: HCT-116 colon
M19-MEL melanoma = tested on: M19-MEL melanoma
HOP-92 NSCLC = tested on: HOP-92 NSCLC
LXFL 529 NSCLC = tested on: LXFL 529 NSCLC
CCRF-CEM leukemia = tested on: CCRF-CEM leukemia
HOP-18 NSCLC = tested on: HOP-18 NSCLC
RXF 393 renal = tested on: RXF 393 renal
EKVX NSCLC = tested on: EKVX NSCLC
COLO 205 colon = tested on: COLO 205 colon
TK-10 renal = tested on: TK-10 renal
HCC-2998 colon = tested on: HCC-2998 colon
HS 578T breast = tested on: HS 578T breast
A498 renal = tested on: A498 renal
SK-MEL-2 melanoma = tested on: SK-MEL-2 melanoma
OVCAR-5 ovarian = tested on: OVCAR-5 ovarian
HOP-62 NSCLC = tested on: HOP-62 NSCLC
NCI-H226 lung = tested on: NCI-H226 lung
OVCAR-4 ovarian = tested on: OVCAR-4 ovarian
SF-295 CNS = tested on: SF-295 CNS
KM12 colon = tested on: KM12 colon
T-47D breast = tested on: T-47D breast
PC-3 prostate = tested on: PC-3 prostate
P388/ADR leukemia = tested on: P388/ADR leukemia
NCI/ADR-RES ovarian = tested on: NCI/ADR-RES ovarian
SN12K1 renal = tested on: SN12K1 renal
MALME-3M melanoma = tested on: MALME-3M melanoma
MDA-MB-231 breast = tested on: MDA-MB-231 breast
DU-145 prostate = tested on: DU-145 prostate
OVCAR-3 ovarian = tested on: OVCAR-3 ovarian
UACC-257 melanoma = tested on: UACC-257 melanoma
NCI-H23 lung = tested on: NCI-H23 lung
MDA-N = tested on: MDA-N
SNB-78 CNS = tested on: SNB-78 CNS
SNB-75 CNS = tested on: SNB-75 CNS
SR leukemia = tested on: SR leukemia

Cn1nc(-c2ccccc2)c(C(=O)/C=C/c2ccc(F)cc2)c(N2CCCCC2)c1=O
TGI (SK-MEL-5 melanoma): 19700 nM
TGI (KM20L2 colon): 19200 nM
TGI (DMS 273 small cell lung): 28800 nM
TGI (SK-MEL-28 melanoma): 16200 nM
TGI (NCI-H522 lung): 28700 nM
TGI (ACHN renal): 27700 nM
TGI (SW-620 colon): 45300 nM
TGI (HT29 colon): 20200 nM
TGI (786-0 renal): 18000 nM
TGI (SF-268 CNS): 37000 nM
TGI (CAKI-1 renal): 27300 nM
TGI (DLD-1 colon): 16600 nM
TGI (MOLT-4 leukemia): 7090 nM
TGI (UO-31 renal): 19100 nM
TGI (A549 NSCLC): 55100 nM
TGI (SK-OV-3 ovarian): 70100 nM
TGI (OVCAR-8 ovarian): 75600 nM
TGI (M14 melanoma): 28600 nM
TGI (HCT-15 colon): > 100000 nM
TGI (RXF-631 renal): 53600 nM
TGI (NCI-H460 lung): 18100 nM
TGI (UACC-62 melanoma): 30000 nM
TGI (DMS 114 small cell lung): 17100 nM
TGI (SF-539 CNS): 16400 nM
TGI (HL-60(TB) leukemia): 3280 nM
TGI (SNB-19 CNS): 55400 nM
TGI (LOX IMVI melanoma): 15400 nM
TGI (K-562 leukemia): 13000 nM
TGI (XF 498 CNS): 60200 nM
TGI (IGROV1 ovarian): 38200 nM
TGI (RPMI-8226 leukemia): 6980 nM
TGI (U251 CNS): 27700 nM
TGI (SN12C renal): > 100000 nM
TGI (HCT-116 colon): 11500 nM
TGI (M19-MEL melanoma): 35300 nM
TGI (HOP-92 NSCLC): 20000 nM
TGI (LXFL 529 NSCLC): 20700 nM
TGI (CCRF-CEM leukemia): 6460 nM
TGI (HOP-18 NSCLC): 20600 nM
TGI (RXF 393 renal): 9860 nM
TGI (EKVX NSCLC): 72300 nM
TGI (COLO 205 colon): 14100 nM
TGI (TK-10 renal): 69900 nM

CC[C@@]1(O)C[C@H](OC2CC(N(C)C)C(OC3CC(O)C(OC4CCC(=O)C(C)O4)C(C)O3)C(C)O2)c2c(cc3c(c2O)C(=O)c2c(O)cccc2C3=O)[C@H]1C(=O)OC (stereo partly specified)
TGI (HCC-2998 colon): 74.6 nM and 351 nM
TGI (SK-MEL-5 melanoma): 59.2 nM and 164 nM
GI50 (KM20L2 colon): 5.95 nM and 2.75 nM
TGI (KM20L2 colon): 249 nM and 1070 nM
TGI (HS 578T breast): 135 nM
TGI (SK-MEL-28 melanoma): 142 nM and 453 nM
TGI (ACHN renal): 579 nM
TGI (HT29 colon): 903 nM and 318 nM
TGI (786-0 renal): 250 nM and 476 nM
TGI (SF-268 CNS): 371 nM and 2790 nM
TGI (CAKI-1 renal): 179 nM and 373 nM
TGI (A498 renal): 53.9 nM and 59.9 nM
GI50 (DLD-1 colon): 9.12 nM and 7.88 nM
TGI (DLD-1 colon): 1150 nM and 1170 nM
TGI (SK-MEL-2 melanoma): 118 nM
TGI (OVCAR-5 ovarian): 220 nM and 457 nM
TGI (HOP-62 NSCLC): 139 nM and 504 nM
TGI (SK-OV-3 ovarian): 1310 nM and 5140 nM
TGI (OVCAR-8 ovarian): 956 nM and 404 nM
TGI (M14 melanoma): 149 nM
TGI (HCT-15 colon): 436 nM and 826 nM
TGI (RXF-631 renal): 66.4 nM
TGI (NCI-H460 lung): 60 nM and 66.2 nM
TGI (UACC-62 melanoma): 49.1 nM and 115 nM
TGI (DMS 114 small cell lung): 154 nM and 173 nM
TGI (SF-539 CNS): 91.7 nM and 216 nM
TGI (NCI-H226 lung): 94.8 nM and 130 nM
TGI (OVCAR-4 ovarian): 221 nM and 196 nM
GI50 (HL-60(TB) leukemia): 8.66 nM and 3.9 nM
TGI (HL-60(TB) leukemia): 61.3 nM and 177 nM
TGI (SF-295 CNS): 224 nM and 920 nM
TGI (SNB-19 CNS): 1980 nM and 2210 nM
TGI (KM12 colon): 519 nM and 560 nM
GI50 (XF 498 CNS): 6.81 nM and 28.2 nM and 23.6 nM
TGI (XF 498 CNS): 165 nM and 55.2 nM
TGI (T-47D breast): 472 nM and 2630 nM
TGI (PC-3 prostate): 132 nM and 62 nM
TGI (P388/ADR leukemia): 659 nM
TGI (NCI/ADR-RES ovarian): 696 nM and 878 nM
GI50 (RPMI-8226 leukemia): 9.04 nM and 4.47 nM
TGI (RPMI-8226 leukemia): 261 nM and 743 nM
TGI (U251 CNS): 2110 nM and 2490 nM
TGI (SN12K1 renal): 101 nM
TGI (MALME-3M melanoma): 99.1 nM and 128 nM
TGI (M19-MEL melanoma): 144 nM and 279 nM
TGI (HOP-92 NSCLC): 129 nM and 161 nM
GI50 (LXFL 529 NSCLC): 4.22 nM
TGI (LXFL 529 NSCLC): 1140 nM
GI50 (CCRF-CEM leukemia): 7.79 nM and 2.2 nM
TGI (CCRF-CEM leukemia): 700 nM and 2690 nM
TGI (MDA-MB-231 breast): 198 nM
TGI (HOP-18 NSCLC): 854 nM and 2720 nM
TGI (RXF 393 renal): 34.5 nM and 124 nM
TGI (DU-145 prostate): 420 nM and 1730 nM
TGI (EKVX NSCLC): 415 nM and 452 nM
TGI (OVCAR-3 ovarian): 600 nM and 169 nM
TGI (UACC-257 melanoma): 179 nM and 260 nM
TGI (NCI-H23 lung): 120 nM and 125 nM
TGI (TK-10 renal): 932 nM and 373 nM
TGI (MDA-N): 48.5 nM and 131 nM

COc1cc(/C=C\c2ccccc2)cc(OC)c1OC
TGI (HCC-2998 colon): 48500 nM
TGI (SK-MEL-5 melanoma): 9120 nM
TGI (KM20L2 colon): 3310 nM
TGI (DMS 273 small cell lung): 11500 nM
TGI (SK-MEL-28 melanoma): > 100000 nM
TGI (NCI-H522 lung): 7260 nM
TGI (ACHN renal): > 78500 nM
TGI (SNB-78 CNS): > 89800 nM
TGI (SW-620 colon): > 100000 nM
TGI (HT29 colon): 14100 nM
TGI (786-0 renal): > 52800 nM
TGI (SF-268 CNS): 59200 nM
TGI (CAKI-1 renal): > 100000 nM
TGI (A498 renal): > 41100 nM
TGI (DLD-1 colon): > 78200 nM
TGI (MOLT-4 leukemia): 17200 nM
TGI (UO-31 renal): 30000 nM
TGI (SK-MEL-2 melanoma): 26200 nM
TGI (A549 NSCLC): > 80300 nM
TGI (OVCAR-5 ovarian): 47300 nM
TGI (HOP-62 NSCLC): 23500 nM
TGI (OVCAR-8 ovarian): 46700 nM
TGI (M14 melanoma): 22100 nM
TGI (HCT-15 colon): 36000 nM
TGI (RXF-631 renal): > 87100 nM
TGI (NCI-H460 lung): 27300 nM
TGI (UACC-62 melanoma): 41200 nM
TGI (DMS 114 small cell lung): > 28000 nM
TGI (SF-539 CNS): 7470 nM
TGI (SNB-75 CNS): 6900 nM
TGI (NCI-H226 lung): 24100 nM
TGI (OVCAR-4 ovarian): > 61000 nM
TGI (HL-60(TB) leukemia): 6340 nM
TGI (SF-295 CNS): 7210 nM
TGI (SNB-19 CNS): > 77500 nM
TGI (KM12 colon): > 73100 nM
TGI (LOX IMVI melanoma): > 100000 nM
TGI (K-562 leukemia): > 43200 nM
TGI (XF 498 CNS): 23700 nM
TGI (IGROV1 ovarian): > 100000 nM
TGI (RPMI-8226 leukemia): 46200 nM
TGI (U251 CNS): 29400 nM
TGI (SN12C renal): 48600 nM
TGI (HCT-116 colon): > 100000 nM
TGI (MALME-3M melanoma): 19700 nM
TGI (SR leukemia): 26700 nM
TGI (M19-MEL melanoma): > 100000 nM
TGI (HOP-92 NSCLC): 21800 nM
TGI (LXFL 529 NSCLC): > 68100 nM
TGI (CCRF-CEM leukemia): 49800 nM
TGI (HOP-18 NSCLC): > 100000 nM
TGI (RXF 393 renal): 5250 nM
TGI (EKVX NSCLC): > 84900 nM
TGI (OVCAR-3 ovarian): 5580 nM
TGI (UACC-257 melanoma): 41300 nM
TGI (COLO 205 colon): > 20400 nM
TGI (NCI-H23 lung): 19500 nM
TGI (TK-10 renal): > 50300 nM
